ChEMBL document CHEMBL1136190, “Synthesis and evaluation of methyl ether derivatives of the vancomycin, teicoplanin, and ristocetin aglycon methyl esters” (2003)
Converted amounts (≈) assume the structure as drawn.

Columns and labels:
Format in all cases: functional
Staphylococcus aureus = assay: Minimum inhibitory concentration against Staphylococcus aureus (ATCC 25923)
Enterococcus faecalis [1] = assay: Minimum inhibitory concentration against Enterococcus faecalis (VanA, BM4166)
Enterococcus faecalis [2] = assay: Minimum inhibitory concentration against Enterococcus faecalis (VanB, ATCC 51299)

| Compound | MIC (Staphylococcus aureus) [µg/mL] | MIC (Enterococcus faecalis [1]) [µg/mL] | MIC (Enterococcus faecalis [2]) [µg/mL] |
| --- | --- | --- | --- |
| CN[C@H](CC(C)C)C(=O)N[C@H]1C(=O)N[C@@H](CC(N)=O)C(=O)N[C@H]2C(=O)N[C@H]3C(=O)N[C@H](C(=O)N[C@H](C(=O)O)c4cc(O)cc(O)c4-c4cc3ccc4O)[C@H](O)c3ccc(c(Cl)c3)Oc3cc2cc(c3O[C@@H]2O[C@H](CO)[C@@H](O)[C@H](O)[C@H]2O[C@H]2C[C@](C)(N)[C@H](O)[C@H](C)O2)Oc2ccc(cc2Cl)[C@H]1O [VANCOMYCIN] | 0.8 (≈ 0.552 µM) | > 100 | 25 (≈ 17.3 µM) |
| CN[C@H](CC(C)C)C(=O)NC1C(=O)NC(CC(N)=O)C(=O)NC2C(=O)NC3C(=O)NC(C(=O)NC(C(=O)OC)c4cc(OC)cc(OC)c4-c4cc3ccc4OC)C(O)c3ccc(c(Cl)c3)Oc3cc2cc(c3OC)Oc2ccc(cc2Cl)[C@H]1O (stereo partly specified) | 1.6 (≈ 1.32 µM) | 50 (≈ 41.2 µM) | 1.6 (≈ 1.32 µM) |
| CN[C@H](CC(C)C)C(=O)N[C@H]1C(=O)N[C@@H](CC(N)=O)C(=O)N[C@H]2C(=O)N[C@H]3C(=O)N[C@H](C(=O)N[C@H](C(=O)O)c4cc(O)cc(O)c4-c4cc3ccc4O)[C@H](O)c3ccc(c(Cl)c3)Oc3cc2cc(c3O)Oc2ccc(cc2Cl)[C@H]1O [VANCOMYCIN AGLYCON] | 0.8 (≈ 0.699 µM) | > 100 | 25 (≈ 21.9 µM) |
| Cc1c(O)cc2cc1Oc1cc(ccc1O)[C@@H](N)C(=O)N[C@H]1C(=O)N[C@@H]2C(=O)N[C@H]2C(=O)N[C@H]3C(=O)N[C@H](C(=O)N[C@@H](C(=O)O)c4cc(O)cc(O[C@H]5O[C@H](CO)[C@@H](O)[C@H](O)[C@@H]5O)c4-c4cc3ccc4O)[C@H](O[C@H]3C[C@@H](N)[C@@H](O)[C@H](C)O3)c3ccc(cc3)Oc3cc2cc(c3O[C@H]2O[C@@H](CO[C@H]3O[C@H](C)[C@@H](O)[C@H](O)[C@@H]3O)[C@H](O)[C@@H](O)[C@@H]2O[C@H]2O[C@H](CO)[C@@H](O)[C@H](O)[C@@H]2O[C@H]2O[C@H](CO)[C@@H](O)[C@@H]2O)Oc2ccc(cc2)[C@H]1O [RISTOCETIN] | 1.6 (≈ 0.779 µM) | > 100 | 12.5 (≈ 6.09 µM) |

Further lines, results first:

| MIC (Staphylococcus aureus) [µg/mL] | MIC (Enterococcus faecalis [1]) [µg/mL] | MIC (Enterococcus faecalis [2]) [µg/mL] | Compound |
| --- | --- | --- | --- |
| 1.6 (≈ 1.34 µM) | 50 (≈ 41.8 µM) | 1.6 (≈ 1.34 µM) | CN[C@H](CC(C)C)C(=O)NC1C(=O)NC(CC#N)C(=O)NC2C(=O)NC3C(=O)NC(C(=O)NC(C(=O)OC)c4cc(OC)cc(OC)c4-c4cc3ccc4OC)C(O)c3ccc(c(Cl)c3)Oc3cc2cc(c3OC)Oc2ccc(cc2Cl)[C@H]1O (stereo partly specified) |
| 3.2 (≈ 2.66 µM) | > 100 | 3.2 (≈ 2.66 µM) | COC(=O)C1NC(=O)C2NC(=O)C(NC(=O)C3NC(=O)C4NC(=O)[C@H](NC(=O)[C@H](N)c5ccc(O)c(c5)Oc5cc4cc(O)c5C)[C@H](O)c4ccc(cc4)Oc4cc3cc(c4OC)Oc3ccc(cc3)C2O)c2ccc(O)c(c2)-c2c(OC)cc(O)cc21 (stereo partly specified) |
| 0.8 (≈ 0.681 µM) | > 100 | 25 (≈ 21.3 µM) | COC(=O)[C@H]1NC(=O)[C@H]2NC(=O)[C@H](NC(=O)[C@@H]3NC(=O)[C@H]4NC(=O)[C@H](NC(=O)[C@H](N)c5ccc(O)c(c5)Oc5cc4cc(O)c5C)[C@H](O)c4ccc(cc4)Oc4cc3cc(c4O)Oc3ccc(cc3)[C@H]2O)c2ccc(O)c(c2)-c2c(O)cc(O)cc21 |
